Results: patent publication US8236822B2, “Compounds as cannabinoid receptor ligands” (Abbott Laboratories, priority 2009, dated 2012)
Like-named read-outs stand apart in the source and are kept apart here.

Legend:
rat CB2 receptors = molecular target: T1, rat CB2 receptors (Rattus norvegicus, UniProt Q9QZN9); assay: rat CB2 radioligand binding assay ([3H]CP-55,940 competition)
T1 construct: expressed in transfected cells; host or cells: HEK293
T1 sequence (Q9QZN9 1-360): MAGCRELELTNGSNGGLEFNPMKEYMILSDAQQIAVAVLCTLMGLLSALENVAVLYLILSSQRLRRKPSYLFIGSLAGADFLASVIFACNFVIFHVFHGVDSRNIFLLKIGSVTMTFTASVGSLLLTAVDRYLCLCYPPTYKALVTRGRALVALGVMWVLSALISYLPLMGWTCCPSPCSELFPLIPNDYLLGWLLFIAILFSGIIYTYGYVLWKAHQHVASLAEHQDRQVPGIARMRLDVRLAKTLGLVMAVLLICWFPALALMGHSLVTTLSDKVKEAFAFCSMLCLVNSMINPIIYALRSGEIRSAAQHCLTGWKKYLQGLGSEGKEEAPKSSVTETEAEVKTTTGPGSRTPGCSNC
Description: (§1) In Vitro Methods—CB2 and CB1Radioligand Binding Assays:
(§2) The CB1 and CB2 radioligand binding assays described herein are utilized to ascertain the selectivity of compounds of the present application for binding to CB2 relative to CB′ receptors.
(§3) HEK293 cells stably expressing rat CB2 receptors were grown until a confluent monolayer was formed. Briefly, the cells were harvested and homogenized in TE buffer (50 mM Tris-HCl, 1 mM MgCl2, and 1 mM EDTA) using a polytron for 2×10 second bursts in the presence of protease inhibitors, followed by centrifugation at 45,000×g for 20 minutes. The final membrane pellet was re-homogenized in storage buffer (50 mM Tris-HCl, 1 mM MgCl2, and 1 mM EDTA and 10% sucrose) and frozen at −78° C. until used. Saturation binding reactions were initiated by the addition of membrane preparation (protein concentration of 20 μg/well for rat CB2) into wells of a deep well plate containing [^3H]CP-55,940 (120 Ci/mmol, a nonselective CB agonist commercially available from Tocris) in assay buffer (50 mM Tris, 2.5 mM EDTA, 5 mM MgCl2, and 0.5 mg/mL fatty acid free BSA, pH 7.4). After 45 min incubation at 30° C., binding reaction was terminated by the addition of 300 μL/well of cold assay buffer followed by rapid vacuum filtration through a UniFilter-96 GF/C filter plates (pre-soaked in 1 mg/mL BSA for 2 hours). The bound activity was counted in a TopCount using Microscint-20. Saturation experiments were conducted with twelve concentrations of [^3H]CP-55,940 ranging from 0.01 to 8 nM. Competition experiments were conducted with 0.5 nM [^3H]CP-55,940 and five concentrations of displacing ligands selected from the range of 0.01 nM to 10 μM. The addition of 10 μM unlabeled CP-55,940 (Tocris, Ellisville, Mo.) was used to assess nonspecific binding.

human CB2 receptors = molecular target: T2, human CB2 receptors (Homo sapiens, UniProt P34972); assay: human CB2 radioligand binding assay ([3H]CP-55,940 competition)
T2 construct: expressed in transfected cells; host or cells: HEK293
Description: as §1, §2
as §3, with “expressing human” for “expressing rat”, “of 5” for “of 20”, “for human” for “for rat”, “After 90” for “After 45”, “concentrations (0.01” for “concentrations of displacing ligands selected from the range of 0.01”, “10 μM) of displacing ligands.” for “10 μM.”

T2 sequence (P34972 whole entry): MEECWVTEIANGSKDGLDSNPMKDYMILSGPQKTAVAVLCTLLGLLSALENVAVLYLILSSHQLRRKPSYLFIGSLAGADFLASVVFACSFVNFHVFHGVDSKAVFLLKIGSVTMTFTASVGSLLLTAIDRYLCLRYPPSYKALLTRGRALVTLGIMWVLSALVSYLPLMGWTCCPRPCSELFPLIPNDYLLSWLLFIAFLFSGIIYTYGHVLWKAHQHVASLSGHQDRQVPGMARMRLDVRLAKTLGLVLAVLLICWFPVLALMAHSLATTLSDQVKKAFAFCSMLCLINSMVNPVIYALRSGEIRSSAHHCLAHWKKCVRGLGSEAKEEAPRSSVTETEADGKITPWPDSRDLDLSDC

SMILES	Ki (rat CB2 receptors) [µM]	Ki (human CB2 receptors) [µM]	Ki (rat CB2 receptors; HEK293 membranes expressing rat CB2, 0.5 nM [3H]CP-55,940, read-out: rat CB2 binding (Ki)) [µM]
Cn1c(C(C)(C)C)c/c(=N\C(=O)c2cc(C(F)(F)F)ccc2OCCNC(C)(C)C)n1CC1CC1 [Example 1, 2-[2-(tert-butylamino)ethoxy]-N-[(3E)-5-tert-butyl-2-(cyclopropylmethyl)-1-methyl-1,2-dihydro-3H-pyrazol-3-ylidene]-5-(trifluoromethyl)benzamide]	0.0442	0.123	–
Cn1c(C(C)(C)C)c/c(=N\C(=O)c2cc(C(F)(F)F)ccc2OC2CN(C(C)(C)C)C2)n1CC1CC1 [Example 2, 2-[(1-tert-butylazetidin-3-yl)oxy]-N-[(3E)-5-tert-butyl-2-(cyclopropylmethyl)-1-methyl-1,2-dihydro-3H-pyrazol-3-ylidene]-5-(trifluoromethyl)benzamide]	0.459	–	–
CCCCn1nc(C(C)(C)C)s/c1=N\C(=O)c1cc(C(F)(F)F)ccc1OC1CN(C(C)(C)C)C1 [Example 3, 2-[(1-tert-butylazetidin-3-yl)oxy]-N-[(2Z)-3-butyl-5-tert-butyl-1,3,4-thiadiazol-2(3H)-ylidene]-5-(trifluoromethyl)benzamide]	0.0291	0.0464	–
CCCCn1/c(=N/C(=O)c2cc(C(F)(F)F)ccc2OCCNC(C)(C)C)cc(C(C)(C)C)n1C [Example 4, 2-[2-(tert-butylamino)ethoxy]-N-[(3E)-2-butyl-5-tert-butyl-1-methyl-1,2-dihydro-3H-pyrazol-3-ylidene]-5-(trifluoromethyl)benzamide]	–	–	0.104
Cn1c(C(C)(C)C)c/c(=N\C(=O)c2cc(C(F)(F)F)ccc2OCCNC(C)(C)C)n1CC1CCC1 [Example 5, 2-[2-(tert-butylamino)ethoxy]-N-[(3E)-5-tert-butyl-2-(cyclobutylmethyl)-1-methyl-1,2-dihydro-3H-pyrazol-3-ylidene]-5-(trifluoromethyl)benzamide]	–	0.199	–
CN1CC[C@H](Oc2ccc(C(F)(F)F)cc2C(=O)/N=c2\cc(C(C)(C)C)n(C)n2CC2CCC2)C1 [Example 6, N-[(3E)-5-tert-butyl-2-(cyclobutylmethyl)-1-methyl-1,2-dihydro-3H-pyrazol-3-ylidene]-2-{[(3S)-1-methylpyrrolidin-3-yl]oxy}-5-(trifluoromethyl)benzamide]	0.42	–	–
